Measurements published in patent US7294635B2 (Portola Pharmaceuticals, Inc., priority 2003, dated 2007).

tested on: ADP-induced human platelet aggregation; experiment: Inhibition of ADP-mediated platelet aggregation in vitro using platelet-rich plasma (PRP assay); assay type: cell-based; settings: 5 min; human platelet-rich plasma, 2 μM ADP, 96-well microtiter, OD 650 nm at 5 min; read-out: Activity in the PRP assay
Method: This Example Provides an Assay for the Inhibition of ADP-Mediated Platelet Aggregation In Vitro Using Platelet-Rich Plasma (PRP)
Platelet-rich plasma (PRP) is prepared by centrifugation at 160×g for 20 minutes at room temperature. PRP is collected, and the platelet concentration is determined using a Coulter counter or hemocytometer (platelet concentration should be 2-4×10^8 platelets per mL).
Inhibition of ADP-dependent aggregation is preferably determined in 96-well flat-bottom microtiter plates using a microtiter plate shaker and plate reader similar to the procedure described by Frantantoni et al., Am. J. Clin. Pathol. […] All steps are performed at room temperature. The total reaction volume of 0.2 mL/well includes: PRP (˜6×10^7 total platelets in the presence of plasma), serial dilutions of test compounds (buffer for control wells) in 0.6% DMSO. After about 5 minutes preincubation at room temperature, ADP is added to a final concentration of 2 μM which induces submaximal aggregation. Buffer is added instead of ADP to one set of control wells (ADP-control). The OD of the samples is then determined at 650 nm using a microtiter plate reader (Softmax, Molecular Devices, Menlo Park, Calif.) resulting in the 0 minute reading. The plates are then agitated for 5 min on a microtiter plate shaker and the 5 minute reading is obtained in the plate reader. Aggregation is calculated from the decrease of OD at 650 nm at t=5 minutes compared to t=0 minutes and is expressed as % of the decrease in the ADP control samples after correcting for changes in the unaggregated control samples.

Compound	IC50
C#Cc1ccc(S(=O)(=O)NC(=O)Nc2ccc(-n3ccc4cc(NC)c(F)cc4c3=O)cc2)s1 [Example 35]	< 10 µM
CNc1cc2ccn(-c3cc(C)c(NC(=O)NS(=O)(=O)c4ccc(Cl)s4)c(C(=O)OC)c3)c(=O)c2cc1F [Example 101, methyl 2-[({[(5-chlorothien-2-yl)sulfonyl]amino}carbonyl)amino]-5-[7-fluoro-6-(methylamino)-1-oxoisoquinolin-2(1H)-yl]-3-methylbenzoate]	< 10 µM
CNc1cc2ccn(-c3ccc(NC(=O)NS(=O)(=O)c4ccc(Cl)s4)c(C(F)F)c3)c(=O)c2cc1F [Example 85, 5-chloro-N-[({2-(difluoromethyl)-4-[7-fluoro-6-(methylamino)-1-oxoisoquinolin-2(1H)-yl]phenyl}amino)carbonyl]thiophene-2-sulfonamide]	< 10 µM
CNc1cc2ccn(-c3ccc(NC(=O)NS(=O)(=O)c4ccc(C#N)s4)cc3)c(=O)c2cc1F [Example 33]	10 to 30 µM
CNc1cc2ccn(-c3ccc(NC(=O)NS(=O)(=O)c4ccc(Cl)s4)cn3)c(=O)c2cc1F [Example 54, 5-chloro-N-[({6-[7-fluoro-6-(methylamino)-1-oxoisoquinolin-2(1H)-yl]pyridin-3-yl}amino)carbonyl]thiophene-2-sulfonamide]	< 10 µM
CNc1cc2ccn(-c3ccc(NC(=O)NS(=O)(=O)c4ccc(Cl)s4)c(OCCO)c3)c(=O)c2cc1F [Example 83, 5-chloro-N-({[4-[7-fluoro-6-(methylamino)-1-oxoisoquinolin-2(1H)-yl]-2-(2-hydroxyethoxy)phenyl]amino}carbonyl)thiophene-2-sulfonamide]	< 10 µM
CNc1cc2ccn(-c3cc(C)c(NC(=O)NS(=O)(=O)c4ccc(Cl)s4)c(C(C)C)c3)c(=O)c2cc1F [Example 100, 5-chloro-N-[({4-[7-fluoro-6-(methylamino)-1-oxoisoquinolin-2(1H)-yl]-2-isopropyl-6-methylphenyl}amino)carbonyl]thiophene-2-sulfonamide]	10 to 30 µM
CNc1cc2ccn(-c3ccc(NC(=O)NS(=O)(=O)c4ccc(Cl)s4)cc3C(N)=O)c(=O)c2cc1F [Example 68, 5-[({[(5-chlorothien-2-yl)sulfonyl]amino}carbonyl)amino]-2-[7-fluoro-6-(methylamino)-1-oxoisoquinolin-2(1H)-yl]benzamide]	10 to 30 µM
CNc1cc2ccn(-c3ccc(NC(=O)NS(=O)(=O)c4ccc(Cl)s4)c(C(F)(F)F)c3)c(=O)c2cc1F [Example 97, 5-chloro-N-({[4-[7-fluoro-6-(methylamino)-1-oxoisoquinolin-2(1H)-yl]-2-(trifluoromethyl)phenyl]amino}carbonyl)thiophene-2-sulfonamide]	< 10 µM
CCCc1ccc(S(=O)(=O)NC(=O)Nc2ccc(-n3ccc4cc(NC)c(F)cc4c3=O)cc2)s1 [Example 31]	10 to 30 µM
CNc1c(F)cc2c(=O)n(-c3ccc(NC(=O)NS(=O)(=O)c4ccc(Cl)s4)cc3)ccc2c1C [Example 120, 5-chloro-N-[({4-[7-fluoro-5-methyl-6-(methylamino)-1-oxoisoquinolin-2(1H)-yl]phenyl}amino)carbonyl]thiophene-2-sulfonamide]	< 10 µM
CNc1cc2ccn(-c3ccc(NC(=O)NS(=O)(=O)c4ccc(Br)s4)cc3)c(=O)c2cc1F [Example 28, 5-bromo-N-[({4-[7-fluoro-6-(methylamino)-1-oxoisoquinolin-2(1H)-yl]phenyl}amino)carbonyl]thiophene-2-sulfonamide]	< 10 µM
CNc1cc2ccn(-c3ccc(NC(=O)NS(=O)(=O)c4ccc(Cl)s4)c(Cl)c3)c(=O)c2cc1F [Example 103, 5-chloro-N-[({2-chloro-4-[7-fluoro-6-(methylamino)-1-oxoisoquinolin-2(1H)-yl]phenyl}amino)carbonyl]thiophene-2-sulfonamide]	< 10 µM
CCCCNc1cc(-n2ccc3cc(NC)c(F)cc3c2=O)ccc1NC(=O)NS(=O)(=O)c1ccc(Cl)s1 [Example 80, N-[({2-(butylamino)-4-[7-fluoro-6-(methylamino)-1-oxoisoquinolin-2(1H)-yl]phenyl}amino)carbonyl]-5-chlorothiophene-2-sulfonamide]	> 30 µM
CNc1cc2ccn(-c3ccc(NC(=O)NS(=O)(=O)c4sccc4C)cc3)c(=O)c2cc1F [Example 41]	10 to 30 µM
CCc1cc(NC(=O)NS(=O)(=O)c2ccc(Cl)s2)ccc1-n1ccc2cc(NC)c(F)cc2c1=O [Example 73, 5-chloro-N-[({3-ethyl-4-[7-fluoro-6-(methylamino)-1-oxoisoquinolin-2(1H)-yl]phenyl}amino)carbonyl]thiophene-2-sulfonamide]	10 to 30 µM
CNc1cc2ccn(-c3ncc(NC(=O)NS(=O)(=O)c4ccc(Cl)s4)cc3C)c(=O)c2cc1F [Example 57, 5-chloro-N-[({6-[7-fluoro-6-(methylamino)-1-oxoisoquinolin-2(1H)-yl]-5-methylpyridin-3-yl}amino)carbonyl]thiophene-2-sulfonamide]	> 30 µM
CNc1cc2ccn(-c3ccc(NC(=O)NS(=O)(=O)c4ccc(Cl)s4)c(OCCOC(C)=O)c3)c(=O)c2cc1F [Example 82, 2-{2-[({[(5-chlorothien-2-yl)sulfonyl]amino}carbonyl)amino]-5-[7-fluoro-6-(methylamino)-1-oxoisoquinolin-2(1H)-yl]phenoxy}ethyl acetate]	10 to 30 µM
CNc1cc2ccn(-c3ccc(NC(=O)NS(=O)(=O)c4ccc(Cl)s4)cc3CO)c(=O)c2cc1F [Example 63, 5-chloro-N-({[4-[7-fluoro-6-(methylamino)-1-oxoisoquinolin-2(1H)-yl]-3-(hydroxymethyl)phenyl]amino}carbonyl)thiophene-2-sulfonamide]	< 10 µM
CCOC(=O)c1cc(NC(=O)NS(=O)(=O)c2ccc(Cl)s2)ccc1-n1ccc2cc(NC)c(F)cc2c1=O [Example 65, ethyl 5-[({[(5-chlorothien-2-yl)sulfonyl]amino}carbonyl)amino]-2-[7-fluoro-6-(methylamino)-1-oxoisoquinolin-2(1H)-yl]benzoate]	10 to 30 µM
CNc1cc2ccn(-c3ccc(NC(=O)NS(=O)(=O)c4ccc(C)s4)cc3)c(=O)c2cc1F [Example 29]	< 10 µM
CNc1cc2ccn(-c3ccc(NC(=O)NS(=O)(=O)c4ccc(Cl)s4)cc3Cl)c(=O)c2cc1F [Example 50, 5-chloro-N-[({3-chloro-4-[7-fluoro-6-(methylamino)-1-oxoisoquinolin-2(1H)-yl]phenyl}amino)carbonyl]thiophene-2-sulfonamide]	< 10 µM
CNc1cc2ccn(-c3ccc(NC(=O)NS(=O)(=O)c4ccc(Cl)s4)c(OC)c3)c(=O)c2cc1F [Example 75, 5-chloro-N-[({4-[7-fluoro-6-(methylamino)-1-oxoisoquinolin-2(1H)-yl]-2-methoxyphenyl}amino)carbonyl]thiophene-2-sulfonamide]	< 10 µM
CNc1c(F)cc2c(=O)n(-c3ccc(NC(=O)NS(=O)(=O)c4ccc(Cl)s4)cc3)ccc2c1Br [Example 109, N-[({4-[5-bromo-7-fluoro-6-(methylamino)-1-oxoisoquinolin-2(1H)-yl]phenyl}amino)carbonyl]-5-chlorothiophene-2-sulfonamide]	> 30 µM
CNc1cc2ccn(-c3ccc(NC(=O)NS(=O)(=O)c4ccc(Cl)s4)c(O)c3)c(=O)c2cc1F [Example 77, 5-chloro-N-[({4-[7-fluoro-6-(methylamino)-1-oxoisoquinolin-2(1H)-yl]-2-hydroxyphenyl}amino)carbonyl]thiophene-2-sulfonamide]	< 10 µM
O=C(Nc1ccc(-n2ccc3cc(NC4CC4)c(F)cc3c2=O)cc1)NS(=O)(=O)c1ccc(Cl)s1 [Example 13, 5-chloro-N-[({4-[6-(cyclopropylamino)-7-fluoro-1-oxoisoquinolin-2(1H)-yl]phenyl}amino)carbonyl]thiophene-2-sulfonamide]	10 to 30 µM
CNc1cc2ccn(-c3ccc(NC(=O)NS(=O)(=O)c4ccc(Cl)s4)c(C(=O)OC)c3)c(=O)c2cc1F [Example 98, methyl 2-[({[(5-chlorothien-2-yl)sulfonyl]amino}carbonyl)amino]-5-[7-fluoro-6-(methylamino)-1-oxoisoquinolin-2(1H)-yl]benzoate]	< 10 µM
CNc1cc2ccn(-c3ccc(NC(=O)NS(=O)(=O)c4ccc(C(F)F)s4)cc3)c(=O)c2cc1F [Example 32]	< 10 µM
CNc1cc2ccn(-c3ccc(NC(=O)NS(=O)(=O)c4ccc(Cl)s4)cc3C#N)c(=O)c2cc1F [Example 67, 5-chloro-N-[({3-cyano-4-[7-fluoro-6-(methylamino)-1-oxoisoquinolin-2(1H)-yl]phenyl}amino)carbonyl]thiophene-2-sulfonamide]	10 to 30 µM
CNc1cc2ccn(-c3ccc(NC(=O)NS(=O)(=O)c4ccc(Cl)s4)c(OCC(F)(F)F)c3)c(=O)c2cc1F [Example 89, 5-chloro-N-({[4-[7-fluoro-6-(methylamino)-1-oxoisoquinolin-2(1H)-yl]-2-(2,2,2-trifluoroethoxy)phenyl]amino}carbonyl)thiophene-2-sulfonamide]	< 10 µM
